# According to PMC10385824, “Antiproliferative and Tubulin-Destabilising Effects of 3-(Prop-1-en-2-yl)azetidin-2-Ones and Related Compounds in MCF-7 and MDA-MB-231 Breast Cancer Cells” (Pharmaceuticals, 2023):
# Where two headings read alike, the source gives them in different places.
# Assays:
# SK-MEL-2 = assay: NCI-60 SRB screen, melanoma; assay type: cell-based, human; conditions: SK-MEL-2, 48 h; for GI50: Homo sapiens, five dose 0.01–100 µM, read-out: GI50
# HT29 = assay: NCI-60 SRB screen, colon cancer; assay type: cell-based, human; conditions: HT29, 48 h; for GI50: Homo sapiens, HT-29, five dose 0.01–100 µM, read-out: GI50
# PC-3 = assay: NCI-60 SRB screen, prostate cancer; assay type: cell-based, human; conditions: PC-3, 48 h; for GI50: Homo sapiens, five dose 0.01–100 µM, read-out: GI50
# SW-620 = assay: NCI-60 SRB screen, colon cancer; assay type: cell-based, human; conditions: SW-620, 48 h; for GI50: Homo sapiens, five dose 0.01–100 µM, read-out: GI50
# ACHN = assay: NCI-60 SRB screen, renal cancer; assay type: cell-based, human; conditions: 48 h; for GI50: Homo sapiens, five dose 0.01–100 µM, read-out: GI50
# MCF-7 = assay: cells; conditions: Homo sapiens; for GI50: MCF7, 48 h
# M14 = assay: NCI-60 SRB screen, melanoma; assay type: cell-based, human; conditions: M14, 48 h; for GI50: Homo sapiens, five dose 0.01–100 µM, read-out: GI50
# MDA-MB-468 = assay: NCI-60 SRB screen, breast cancer; assay type: cell-based, human; conditions: MDA-MB-468, 48 h; for GI50: Homo sapiens, five dose 0.01–100 µM, read-out: GI50
# COLO 205 = assay: NCI-60 SRB screen, colon cancer; assay type: cell-based, human; conditions: COLO 205, 48 h; for GI50: Homo sapiens, five dose 0.01–100 µM, read-out: GI50
# UO-31 = assay: NCI-60 SRB screen, renal cancer; assay type: cell-based, human; conditions: UO-31, 48 h; for GI50: Homo sapiens, five dose 0.01–100 µM, read-out: GI50
# KM12 = assay: NCI-60 SRB screen, colon cancer; assay type: cell-based, human; conditions: KM12, 48 h; for GI50: Homo sapiens, five dose 0.01–100 µM, read-out: GI50
# HCT-15 = assay: NCI-60 SRB screen, colon cancer; assay type: cell-based, human; conditions: HCT-15, 48 h; for GI50: Homo sapiens, five dose 0.01–100 µM, read-out: GI50
# EKVX = assay: NCI-60 SRB screen, non-small cell lung cancer; assay type: cell-based, human; conditions: 48 h
# LOX IMVI = assay: NCI-60 SRB screen, melanoma; assay type: cell-based, human; conditions: 48 h; for GI50: Homo sapiens, five dose 0.01–100 µM, read-out: GI50
# OVCAR-8 = assay: NCI-60 SRB screen, ovarian cancer; assay type: cell-based, human; conditions: OVCAR-8, 48 h; for GI50: Homo sapiens, five dose 0.01–100 µM, read-out: GI50
# UACC-62 = assay: NCI-60 SRB screen, melanoma; assay type: cell-based, human; conditions: UACC-62, 48 h; for GI50: Homo sapiens, five dose 0.01–100 µM, read-out: GI50
# CAKI-1 = assay: NCI-60 SRB screen, renal cancer; assay type: cell-based, human; conditions: CAKI-1, 48 h; for GI50: Homo sapiens, five dose 0.01–100 µM, read-out: GI50
# HOP-92 = assay: NCI-60 SRB screen, non-small cell lung cancer; assay type: cell-based, human; conditions: HOP-92, 48 h; for GI50: Homo sapiens, five dose 0.01–100 µM, read-out: GI50
# HCT-116 = assay: NCI-60 SRB screen, colon cancer; assay type: cell-based, human; conditions: HCT-116, 48 h; for GI50: Homo sapiens, five dose 0.01–100 µM, read-out: GI50
# OVCAR-4 = assay: NCI-60 SRB screen, ovarian cancer; assay type: cell-based, human; conditions: OVCAR-4, 48 h; for GI50: Homo sapiens, five dose 0.01–100 µM, read-out: GI50
# OVCAR-3 = assay: NCI-60 SRB screen, ovarian cancer; assay type: cell-based, human; conditions: OVCAR-3, 48 h; for GI50: Homo sapiens, five dose 0.01–100 µM, read-out: GI50
# [1] = tested on: MCF-7 human breast cancer cells; assay: cells
# SK-MEL-5 = assay: NCI-60 SRB screen, melanoma; assay type: cell-based, human; conditions: SK-MEL-5, 48 h; for GI50: Homo sapiens, five dose 0.01–100 µM, read-out: GI50
# A498 = assay: NCI-60 SRB screen, renal cancer; assay type: cell-based, human; conditions: A498, 48 h; for GI50: Homo sapiens, five dose 0.01–100 µM, read-out: GI50
# NCI-H23 = assay: NCI-60 SRB screen, non-small cell lung cancer; assay type: cell-based, human; conditions: NCI-H23, 48 h; for GI50: Homo sapiens, five dose 0.01–100 µM, read-out: GI50
# RXF 393 = assay: NCI-60 SRB screen, renal cancer; assay type: cell-based, human; conditions: RXF 393, 48 h; for GI50: Homo sapiens, five dose 0.01–100 µM, read-out: GI50
# BT-549 = assay: NCI-60 SRB screen, breast cancer; assay type: cell-based, human; conditions: BT-549, 48 h; for GI50: Homo sapiens, five dose 0.01–100 µM, read-out: GI50
# 786-0 = assay: NCI-60 SRB screen, renal cancer; assay type: cell-based, human; conditions: 786-0, 48 h; for GI50: Homo sapiens, five dose 0.01–100 µM, read-out: GI50
# SNB-75 = assay: NCI-60 SRB screen, CNS cancer; assay type: cell-based, human; conditions: SNB-75, 48 h; for GI50: Homo sapiens, five dose 0.01–100 µM, read-out: GI50
# [2] = tested on: MDA-MB-231 human breast cancer cells; assay: Alamar Blue cell viability (antiproliferative) assay; assay type: cell-based; conditions: read-out: IC50
# HOP-62 = assay: NCI-60 SRB screen, non-small cell lung cancer; assay type: cell-based, human; conditions: HOP-62, 48 h; for GI50: Homo sapiens, five dose 0.01–100 µM, read-out: GI50
# IGROV1 = assay: NCI-60 SRB screen, ovarian cancer; assay type: cell-based, human; conditions: IGROV1, 48 h; for GI50: Homo sapiens, IGROV-1, five dose 0.01–100 µM, read-out: GI50
# A549/ATCC = assay: NCI-60 SRB screen, non-small cell lung cancer; assay type: cell-based, human; conditions: 48 h; for GI50: Homo sapiens, A549/ATCC, five dose 0.01–100 µM, read-out: GI50
# [3] = MCF7, 72 h, read-out: cell viability
smiles,measurement,setting,value
"C=C(C)C1C(=O)N(c2cc(OC)c(OC)c(OC)c2)C1c1ccc(OC)c(O)c1 (centres unmarked) [9q, 4-(3-Hydroxy-4-methoxyphenyl)-1-(3,4,5-trimethoxyphenyl)-3-(prop-1-en-2-yl)azetidin-2-one]",GI50,SK-MEL-2,44.6 nM
same,% Growth,SK-MEL-2; one dose 10 µM,9.55%
same,% Growth,HT29; one dose 10 µM,2.66%
same,GI50,HT29,187 nM
same,GI50,PC-3,20.1 nM
same,% Growth,PC-3; one dose 10 µM,27.31%
same,GI50,SW-620,33.4 nM
same,% Growth,SW-620; one dose 10 µM,17.89%
same,GI50,ACHN,21.3 nM
same,% Growth,ACHN; one dose 10 µM,34.94%
same,IC50,MCF-7; MCF7,< 10 nM
same,GI50,MCF-7,< 10 nM
same,CC50,"MCF-7; MCF7, read-out: LC50",> 100000 nM
same,GI50,M14,17.3 nM
same,% Growth,M14; one dose 10 µM,3.41%
same,GI50,MDA-MB-468,< 10 nM
same,% Growth,MDA-MB-468; one dose 10 µM,13.36%
same,% Growth,COLO 205; one dose 10 µM,-27.00%
same,GI50,COLO 205,284 nM
same,GI50,UO-31,87.8 nM
same,% Growth,UO-31; one dose 10 µM,29.39%
same,GI50,KM12,< 10 nM
same,% Growth,KM12; one dose 10 µM,-24.63%
same,% Growth,HCT-15; one dose 10 µM,15.23%
same,GI50,HCT-15,29.9 nM
same,% Growth,EKVX; one dose 10 µM,68.88%
same,GI50,LOX IMVI,< 10 nM
same,% Growth,LOX IMVI; one dose 10 µM,30.61%
same,GI50,OVCAR-8,< 10 nM
same,% Growth,OVCAR-8; one dose 10 µM,14.64%
same,GI50,UACC-62,< 10 nM
same,% Growth,UACC-62; one dose 10 µM,38.81%
same,% Growth,CAKI-1; one dose 10 µM,44.03%
same,GI50,CAKI-1,30.8 nM
same,% Growth,HOP-92; one dose 10 µM,16.15%
same,GI50,HOP-92,15.4 nM
same,% Growth,HCT-116; one dose 10 µM,-10.74%
same,GI50,HCT-116,14.9 nM
same,GI50,OVCAR-4,< 10 nM
same,% Growth,OVCAR-4; one dose 10 µM,25.51%
same,GI50,OVCAR-3,20.7 nM
same,% Growth,OVCAR-3; one dose 10 µM,-40.14%
same,IC50,[1]; MCF7,10 nM
same,IC50,"[1]; MCF7, 72 h",12 nM
same,viability at 0.1 µM,[1]; [3],22%
same,viability at 1 µM,[1]; [3],21%
same,viability at 10 µM,[1]; [3],11%
same,GI50,SK-MEL-5,12.4 nM
same,% Growth,SK-MEL-5; one dose 10 µM,-0.90%
same,% Growth,A498; one dose 10 µM,-13.19%
same,GI50,A498,< 10 nM
same,GI50,NCI-H23,23.7 nM
same,% Growth,NCI-H23; one dose 10 µM,14.46%
same,GI50,RXF 393,42.8 nM
same,% Growth,RXF 393; one dose 10 µM,18.79%
same,% Growth,BT-549; one dose 10 µM,-9.94%
same,GI50,BT-549,11 nM
same,% Growth,786-0; one dose 10 µM,4.28%
same,GI50,786-0,26.8 nM
same,GI50,SNB-75,47.3 nM
same,% Growth,SNB-75; one dose 10 µM,41.90%
same,IC50,[2],23.9 nM
same,% Growth,HOP-62; one dose 10 µM,22.22%
same,GI50,HOP-62,52.1 nM
same,GI50,IGROV1,32.2 nM
same,% Growth,IGROV1; one dose 10 µM,29.32%
same,% Growth,"A549/ATCC; A549/A TCC, one dose 10 µM",14.76%
same,GI50,A549/ATCC,27.8 nM
"C=CCC1C(=O)N(c2cc(OC)c(OC)c(OC)c2)C1c1ccc(OC)c(O)c1 (centres unmarked) [10p, 4-(3-Hydroxy-4-methoxyphenyl)-1-(3,4,5-trimethoxyphenyl)-3-allylazetidin-2-one]",GI50,SK-MEL-2,301 nM
same,GI50,HT29,360 nM
same,GI50,PC-3,40.3 nM
same,GI50,SW-620,42.2 nM
same,GI50,ACHN,53.2 nM
same,GI50,MCF-7,35.3 nM
same,GI50,M14,17.6 nM
same,GI50,MDA-MB-468,25 nM
same,GI50,COLO 205,563 nM
same,GI50,UO-31,85.8 nM
same,GI50,KM12,22.4 nM
same,GI50,HCT-15,36.7 nM
same,GI50,"EKVX; Homo sapiens, five dose 0.01–100 µM, read-out: GI50",76.4 nM
same,GI50,LOX IMVI,33.9 nM
same,GI50,OVCAR-8,34 nM
same,GI50,UACC-62,32 nM
same,GI50,CAKI-1,44 nM
same,GI50,HOP-92,23.8 nM
same,GI50,HCT-116,24.9 nM
same,GI50,OVCAR-4,39.7 nM
same,GI50,OVCAR-3,23.3 nM
same,IC50,"[1]; MCF7, read-out: Antiproliferative Activity IC50, MCF-7, eight concentrations 0.001–50 μM, mean ± SEM, Table 3",31 ± 2 nM
same,GI50,SK-MEL-5,24.9 nM
same,GI50,A498,17.5 nM
same,GI50,NCI-H23,30.7 nM
same,GI50,RXF 393,41 nM
same,GI50,BT-549,18.8 nM
same,GI50,786-0,25.5 nM
same,GI50,SNB-75,44.8 nM
same,IC50,[2],27 nM
same,GI50,HOP-62,61 nM
same,GI50,IGROV1,44.8 nM
same,GI50,A549/ATCC,37.3 nM
